# Data as given in US20150376172A1, “FLUORO-[1,3]OXAZINES AS BACE1 INHIBITORS” (HOFFMANN-LA ROCHE INC., priority 2013, published 2015).
# Target: T1, BACE1 (Homo sapiens, UniProt P56817)
# T1 construct: endogenous in cells; host or cells: HEK293 APP cells
# Experiment: Cellular Aβ-lowering assay (Abeta 40 AlphaLISA)
# Format: cell-based
# Conditions: HEK293 APP cells; 18-20 hrs incubation; Aβ 40 in culture supernatants by AlphaLISA; read-out: BACE1 cell act. Aβ40 IC50
# Experimental: Cellular Aβ-lowering assay:
# The Abeta 40 AlphaLISA Assay can be used. The HEK293 APP cells were seeded in 96 well Microtiter plates in cell culture medium (Iscove's, plus 10% (v/v) fetal bovine serum, penicillin/streptomycin) to about 80% confluency and the compounds were added at a 3× concentration in ⅓ volume of culture medium (final DMSO concentration was kept at 1% v/v). After 18-20 hrs incubation at 37° C. and 5% CO2 in a humidified incubator, the culture supernatants were harvested for the determination of Aβ 40 concentrations using Perkin-Elmer Human Amyloid beta 1-40 (high specificity) Kit (Cat#AL275C).
# In a Perkin-Elmer White Optiplate-384 (Cat#6007290), 2 ul culture supernatants were combined with 2 μl of a 10× AlphaLISA Anti-hAβAcceptor beads+Biotinylated Antibody Anti-Aβ1-40 Mix (50 μg/mL/5 nM). After 1 hour room temperature incubation, 16 μl of a 1.25× preparation of Streptavidin (SA) Donor beads (25 μg/mL) were added and incubated for 30 minutes in the Dark. Light Emission at 615 nm was then recorded using EnVision-Alpha Reader. Levels of Aβ 40 in the culture supernatants were calculated as percentage of maximum signal (cells treated with 1% DMSO without inhibitor). The IC50 values were calculated using the Excel XLfit software.
# T1 sequence (P56817 46-501): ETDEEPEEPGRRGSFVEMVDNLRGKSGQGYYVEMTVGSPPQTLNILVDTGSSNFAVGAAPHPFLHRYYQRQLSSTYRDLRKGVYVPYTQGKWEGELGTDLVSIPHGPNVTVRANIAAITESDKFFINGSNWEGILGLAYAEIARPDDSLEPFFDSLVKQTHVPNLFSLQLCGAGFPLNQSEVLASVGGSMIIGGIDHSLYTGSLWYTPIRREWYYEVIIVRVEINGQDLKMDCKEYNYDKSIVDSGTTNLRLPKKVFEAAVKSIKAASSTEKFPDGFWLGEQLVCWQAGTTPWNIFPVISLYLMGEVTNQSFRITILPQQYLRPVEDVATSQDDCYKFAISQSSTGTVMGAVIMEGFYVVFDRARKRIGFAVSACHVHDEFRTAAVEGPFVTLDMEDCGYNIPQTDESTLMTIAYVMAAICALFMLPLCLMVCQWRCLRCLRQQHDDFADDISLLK
row,Structure (SMILES),IC50 [nM]
1,"C[C@]1(c2cc(NC(=O)c3ccc(C#N)cn3)ccc2F)N=C(N)O[C@@H](C(F)(F)F)[C@@H]1F [Example 1, N-(3-((4R,5R,6R)-2-Amino-5-fluoro-4-methyl-6-(trifluoromethyl)-5,6-dihydro-4H-1,3-oxazin-4-yl)-4-fluorophenyl)-5-cyanopicolinamide]",150
2,"C[C@]1(c2cc(NC(=O)c3ccc(C#N)cn3)ccc2F)N=C(N)O[C@H](C(F)(F)F)[C@@H]1F [Example 2, N-(3-((4R,5R,6S)-2-Amino-5-fluoro-4-methyl-6-(trifluoromethyl)-5,6-dihydro-4H-1,3-oxazin-4-yl)-4-fluorophenyl)-5-cyanopicolinamide]",10
3,"C[C@]1(c2cc(NC(=O)c3ccc(Cl)cn3)ccc2F)N=C(N)O[C@@H](C(F)(F)F)[C@@H]1F [Example 3, N-(3-((4R,5R,6R)-2-Amino-5-fluoro-4-methyl-6-(trifluoromethyl)-5,6-dihydro-4H-1,3-oxazin-4-yl)-4-fluorophenyl)-5-chloropicolinamide]",490
4,"C[C@]1(c2cc(NC(=O)c3ccc(Cl)cn3)ccc2F)N=C(N)O[C@H](C(F)(F)F)[C@@H]1F [Example 4, N-(3-((4R,5R,6S)-2-Amino-5-fluoro-4-methyl-6-(trifluoromethyl)-5,6-dihydro-4H-1,3-oxazin-4-yl)-4-fluorophenyl)-5-chloropicolinamide]",14
5,"COc1cnc(C(=O)Nc2ccc(F)c([C@@]3(C)N=C(N)O[C@H](C(F)(F)F)[C@@H]3F)c2)cn1 [Example 5, N-(3-((4R,5R,6S)-2-Amino-5-fluoro-4-methyl-6-(trifluoromethyl)-5,6-dihydro-4H-1,3-oxazin-4-yl)-4-fluorophenyl)-5-methoxypyrazine-2-carboxamide]",12
6,"C[C@]1(c2cc(NC(=O)c3cnc(C(F)F)cn3)ccc2F)N=C(N)O[C@H](C(F)(F)F)[C@@H]1F [Example 6, N-(3-((4R,5R,6S)-2-Amino-5-fluoro-4-methyl-6-(trifluoromethyl)-5,6-dihydro-4H-1,3-oxazin-4-yl)-4-fluorophenyl)-5-(difluoromethyl)pyrazine-2-carboxamide]",58
7,"CC#CCOc1cnc(C(=O)Nc2ccc(F)c([C@@]3(C)N=C(N)O[C@H](C(F)(F)F)[C@@H]3F)c2)cn1 [Example 7, N-(3-((4R,5R,6S)-2-Amino-5-fluoro-4-methyl-6-(trifluoromethyl)-5,6-dihydro-4H-1,3-oxazin-4-yl)-4-fluorophenyl)-5-(but-2-ynyloxy)pyrazine-2-carboxamide]",2
8,"C[C@]1(c2cc(NC(=O)c3ccc(C#N)cn3)ccc2F)N=C(N)O[C@H](C(F)(F)F)[C@@H]1OCC(F)(F)F [Example 8, N-(3-((4R,5R,6S)-2-Amino-4-methyl-5-(2,2,2-trifluoroethoxy)-6-(trifluoromethyl)-5,6-dihydro-4H-1,3-oxazin-4-yl)-4-fluorophenyl)-5-cyanopicolinamide]",2
9,"C[C@]1(F)[C@H](C(F)(F)F)OC(N)=N[C@]1(C)c1cc(NC(=O)c2ccc(C#N)cn2)ccc1F [Example 9, N-(3-((4R,5R,6R)-2-Amino-5-fluoro-4,5-dimethyl-6-(trifluoromethyl)-5,6-dihydro-4H-1,3-oxazin-4-yl)-4-fluorophenyl)-5-cyanopicolinamide]",440
10,"C[C@@]1(c2cc(-c3cncnc3)ccc2F)C[C@@H](C(F)(F)F)OC(N)=N1 [Example 11, (4S,6S)-4-(2-fluoro-5-(pyrimidin-5-yl)phenyl)-4-methyl-6-(trifluoromethyl)-5,6-dihydro-4H-1,3-oxazin-2-amine]",420
11,"C[C@@]1(c2cc(-c3cncc(C#N)c3)ccc2F)C[C@@H](C(F)(F)F)OC(N)=N1 [Example 12, 5-(3-((4S,6S)-2-Amino-4-methyl-6-(trifluoromethyl)-5,6-dihydro-4H-1,3-oxazin-4-yl)-4-fluorophenyl)nicotinonitrile]",900
